{"source": "patent US6949383B2", "about": "(priority 1998, dated 2005)", "format_in_all_cases": "cell-based, Escherichia coli", "key": {"dnaQ": {"tested_on": "dnaQ"}, "Wild-Type": {"tested_on": "Wild-Type"}, "[1]": {"tested_on": "Super-Oflo.-resisting dnaQ", "test": "Minimum growth inhibiting concentration (MIC) of antibiotic substances"}, "dnaQ49 strain": {"tested_on": "dnaQ49 strain", "test": "Drug resistance reached by repeated mutagenesis and selection (Example 2)"}}, "data": [{"smiles": "CC1COc2c(N3CCN(C)CC3)c(F)cc3c(=O)c(C(=O)O)cn1c23", "note": "(centres unmarked) [Ofloxacin]", "values": [{"measurement": "Minimum growth inhibiting concentration (MIC)", "setting": "dnaQ", "result": 0.0156}, {"measurement": "Minimum growth inhibiting concentration (MIC)", "setting": "Wild-Type", "result": 0.0625}, {"measurement": "Minimum growth inhibiting concentration (MIC)", "setting": "[1]", "result": 1024}, {"measurement": "Concentration of Ofloxacin", "setting": "dnaQ49 strain; mutagenesis treatment for 1 time", "result": 0.001, "unit": "µg/mL"}, {"measurement": "Concentration of Ofloxacin", "setting": "dnaQ49 strain; mutagenesis treatments for 2 times", "result": 0.01, "unit": "µg/mL"}, {"measurement": "Concentration of Ofloxacin", "setting": "dnaQ49 strain; mutagenesis treatments for 3 times", "result": 0.1, "unit": "µg/mL"}, {"measurement": "Concentration of Ofloxacin", "setting": "dnaQ49 strain; mutagenesis treatments for 4 times", "result": 1, "unit": "µg/mL"}, {"measurement": "Concentration of Ofloxacin", "setting": "dnaQ49 strain; mutagenesis treatments for 5 times", "result": 10, "unit": "µg/mL"}, {"measurement": "Concentration of Ofloxacin", "setting": "dnaQ49 strain; mutagenesis treatments for 6 times", "result": 30, "unit": "µg/mL"}, {"measurement": "Concentration of Ofloxacin", "setting": "dnaQ49 strain; mutagenesis treatments for 7 times", "result": 50, "unit": "µg/mL"}, {"measurement": "Concentration of Ofloxacin", "setting": "dnaQ49 strain; mutagenesis treatments for 8 times", "result": 60, "unit": "µg/mL"}, {"measurement": "Concentration of Ofloxacin", "setting": "dnaQ49 strain; mutagenesis treatments for 9 times", "result": 70, "unit": "µg/mL"}, {"measurement": "Concentration of Ofloxacin", "setting": "dnaQ49 strain; mutagenesis treatments for 10 times", "result": 80, "unit": "µg/mL"}, {"measurement": "Concentration of Ofloxacin", "setting": "dnaQ49 strain; mutagenesis treatments for 11 times", "result": 90, "unit": "µg/mL"}, {"measurement": "Concentration of Ofloxacin", "setting": "dnaQ49 strain; mutagenesis treatments for 12 times", "result": 100, "unit": "µg/mL"}, {"measurement": "Concentration of Ofloxacin", "setting": "dnaQ49 strain; mutagenesis treatments for 13 times", "result": 120, "unit": "µg/mL"}, {"measurement": "Concentration of Ofloxacin", "setting": "dnaQ49 strain; mutagenesis treatments for 14 times", "result": 132, "unit": "µg/mL"}, {"measurement": "Concentration of Ofloxacin", "setting": "dnaQ49 strain; mutagenesis treatments for 15 times", "result": 144, "unit": "µg/mL"}, {"measurement": "Concentration of Ofloxacin", "setting": "dnaQ49 strain; mutagenesis treatments for 16 times", "result": 150, "unit": "µg/mL"}, {"measurement": "Concentration of Ofloxacin", "setting": "dnaQ49 strain; mutagenesis treatments for 17 times", "result": 156, "unit": "µg/mL"}, {"measurement": "Concentration of Ofloxacin", "setting": "dnaQ49 strain; mutagenesis treatments for 18 times", "result": 168, "unit": "µg/mL"}, {"measurement": "Concentration of Ofloxacin", "setting": "dnaQ49 strain; mutagenesis treatments for 19 times", "result": 180, "unit": "µg/mL"}, {"measurement": "Concentration of Ofloxacin", "setting": "dnaQ49 strain; mutagenesis treatments for 20 times", "result": 210, "unit": "µg/mL"}, {"measurement": "Concentration of Ofloxacin", "setting": "dnaQ49 strain; mutagenesis treatments for 21 times", "result": 240, "unit": "µg/mL"}, {"measurement": "Concentration of Ofloxacin", "setting": "dnaQ49 strain; mutagenesis treatments for 22 times", "result": 270, "unit": "µg/mL"}, {"measurement": "Concentration of Ofloxacin", "setting": "dnaQ49 strain; mutagenesis treatments for 23 times", "result": 300, "unit": "µg/mL"}, {"measurement": "Concentration of Ofloxacin", "setting": "dnaQ49 strain; mutagenesis treatments for 24 times", "result": 320, "unit": "µg/mL"}, {"measurement": "Concentration of Ofloxacin", "setting": "dnaQ49 strain; mutagenesis treatments for 25 times", "result": 330, "unit": "µg/mL"}, {"measurement": "Concentration of Ofloxacin", "setting": "dnaQ49 strain; mutagenesis treatments for 26 times", "result": 340, "unit": "µg/mL"}, {"measurement": "Concentration of Ofloxacin", "setting": "dnaQ49 strain; mutagenesis treatments for 27 times", "result": 350, "unit": "µg/mL"}, {"measurement": "Concentration of Ofloxacin", "setting": "dnaQ49 strain; mutagenesis treatments for 28 times", "result": 360, "unit": "µg/mL"}, {"measurement": "Concentration of Ofloxacin", "setting": "dnaQ49 strain; mutagenesis treatments for 29 times", "result": 370, "unit": "µg/mL"}, {"measurement": "Concentration of Ofloxacin", "setting": "dnaQ49 strain; mutagenesis treatments for 30 times", "result": 380, "unit": "µg/mL"}, {"measurement": "Concentration of Ofloxacin", "setting": "dnaQ49 strain; mutagenesis treatments for 31 times", "result": 400, "unit": "µg/mL"}, {"measurement": "Concentration of Ofloxacin", "setting": "dnaQ49 strain; mutagenesis treatments for 32 times", "result": 425, "unit": "µg/mL"}, {"measurement": "Concentration of Ofloxacin", "setting": "dnaQ49 strain; mutagenesis treatments for 33 times", "result": 450, "unit": "µg/mL"}, {"measurement": "Concentration of Ofloxacin", "setting": "dnaQ49 strain; mutagenesis treatments for 34 times", "result": 475, "unit": "µg/mL"}, {"measurement": "Concentration of Ofloxacin", "setting": "dnaQ49 strain; mutagenesis treatments for 35 times", "result": 500, "unit": "µg/mL"}]}]}
